Test results reported in US9834773B2, “Methods and means for metabolic engineering and improved product formation by micro-organisms” (Universiteit Leiden, priority 2006, dated 2017).
“Also recorded” adds a separate entry of the source.

Assays:
[1] = test system: several streptomycetes (Bacillus subtilis as the indicator strain); experiment: Global antibiotic activity assay: streptomycetes on MM mannitol with or without GlcNAc, Bacillus subtilis overlay; type: cell-based, Streptomyces species; settings: MM mannitol 0.5% with vs without GlcNAc 1%; for growth inhibition zones indicative of antibiotic production: B. subtilis indicator
Experimental: FIG. 23. Conservation of the GlcNAc-dependent antibiotic-inducing pathway amongst streptomycetes. Streptomycetes were grown on MM agar plates with 0.5% mannitol alone (left panel), or with added 1% GlcNAc (right panel), and an overlay was applied containing B. subtilis, allowing visualization of growth inhibition caused by antibiotic production. The tested streptomycetes were Streptomyces lividans 1326 (1326), Streptomyces hygroscopicus (hygro), Streptomyces collinus (colli), Streptomyces roseosporus (roseo), Streptomyces cinnamonensis (cinna), Streptomyces venezuelae (venez), Streptomyces clavuligerus (clavu), Streptomyces rimosus (rimos), Streptomyces griseus (grise), Streptomyces acrimycini (acrim), Streptomyces limosus (limos), and Streptomyces avermitilis (averm). See Materials and Methods section for exact nomenclature. The GlcNAc-triggering effect on antibiotic activity was most obvious for S. hygroscopicus, S. collinus, S. venezuelae, S. clavuligerus, S. rimosus, and S. griseus.
Samples (1 μl) of diluted spore suspensions were spotted on minimal medium plates containing 0.5% mannitol with or without 1% GlcNAc and incubated three days at 28° C. For the bioassay, we inoculated 10 ml of molten soft nutrient agar (SNA) with 500 μl of a Bacillus subtilis overnight culture (0D600˜1), and poured the mixture into square 12-cm-side Petri dishes. Plates were kept 2 h at 4° C. to solidify SNA and to allow diffusion of antibiotics produced, then incubated overnight at 30° C.
Is the GlcNAc-mediated control of antibiotic production a more widespread phenomenon in streptomycetes? To assess this, we evaluated the effect of GlcNAc on total antimicrobial activity (bactericidal and bacteristatic) of several streptomycetes, using Bacillus subtilis as the indicator strain. The tested strains were spotted on minimal medium containing mannitol (0.5%) with or without GlcNAc (1%). Excitingly, growth inhibition zones indicative of antibiotic production were much larger for Streptomyces clavuligerus (a producer of cephamycin), Streptomyces collinus (produces kirromycin), Streptomyces griseus (streptomycin producer), Streptomyces hygroscopicus (produces hygromycin), Streptomyces rimosus (produces oxytetracycline), and Streptomyces venezuelae (chloramphenicol, methymycin) (FIG. 23).

[2] = test system: S. coelicolor M145 and nagE1, nagE2 mutants; experiment: Development on R2YE agar plates with or without N-acetylglucosamine; type: cell-based, Streptomyces coelicolor; settings: N-acetylglucosamine 1% w/v
Experimental: FIG. 18. N-acetylglucosamine is transported by NagE2 (SCO2907). Mutants deleted for the transport genes nagE1/(SCO2906), nagE2 (SCO2907), or both, were plated on R2YE agar plates with or without N-acetylglucosamine (1% w/v). Other strains on the agar plates are: S.coelicolor M145 (parent of all mutants), the dasR mutant BAP29 and the pts mutants ptsH (BAP1), crr (BAP2), and ptsI (BAP3). For phenotypes of the pts mutants see also FIG. 3A). […] This proves that indeed nagE2 is the transporter of N-caetylglucosamine and is essential for import of the inducer molecule for the DasR control system.
Two possible transporters for N-acetylglucosamine were identified on the S. coelicolor genome, namely the adjacent genes nagE1 (SCO2906) and nagE2 (SCO2907). Mutants were created for both genes by replacing the entire gene by the apramycin resistance cassette aacC4. A double mutant was also produced (BAP6). The method used to do this was by using pWHM3, as described previously (Nothaft et al., 2003). Mutants deleted for the transport genes nagE1 (BAP4), nagE2 (BAP5), or both (BAP6), were plated on R2YE agar plates with or without N-acetylglucosamine (1% w/v). Other strains on the agar plates are: S.coelicolor M145 (parent of all mutants), the dasR mutant BAP29 and the pts mutants ptsH (BAP1), crr (BAP2), and ptsI (BAP3). For phenotypes of the pts mutants see also FIG. 3A). […] This proves that indeed nagE2 is the transporter of N-acetylglucosamine and is essential for import of the inducer molecule for the DasR control system.

[3] = test system: S. coelicolor M145 and BAP29 mycelia; experiment: Sugar uptake assay with N-[14C]acetyl-D-glucosamine into mycelia; type: cell-based, Streptomyces coelicolor; settings: parent M145, cultures grown in glycerol and inducer (GlcNAc); 20 μM N-[14C]acetyl-D-glucosamine
Source text: FIG. 8. DasR represses genes the N-acetylglucosamine regulon (A) Effect of deletion of dasR on the uptake of GlcNAc. Left, uptake in glycerol-grown cultures; right, uptake in cultures grown in glycerol and inducer (GlcNAc); note that expression was constitutive in BAP29. (B) Western blot analysis of HPr (top) and IIA^Crr (bottom), showing that inducibility of these PTS proteins is controlled by DasR. (C) Transcriptional analysis of crr (for IIA^Crr), nagE2 (for IIC^GlcNAc), malX2 (for IIB^GlcNAc), nagB and chiF by semi-quantitative RT-PCR. Samples were collected before and 15, 30 and 60 min after the addition of GlcNAc to exponentially growing minimal medium glycerol cultures. 16S rRNA was used as control.
Uptake assays with 20 μM N-[^14C]acetyl-D-glucosamine (6.2 mCi mmol^−1) into mycelia were performed as described (Nothaft et al., 2003).
Since many of the predicted DasR targets were involved in the fate of carbon sources (Table 2), we analyzed the effects of the dasR mutation on sugar import. […] This correlated to constitutive protein levels of the universal PTS phosphotransferases HPr and IIA^Crr (FIG. 8B), and was supported by RT-PCR of the respective genes (malX2, nagE2, crr-ptsI and ptsH; FIG. 8C) that encode the PTS permease complex (IIB^GlcNAc, IIC^GlcNAc, IIA^Crr, EI, HPr).

## CC(=O)N[C@H]1C(O)O[C@H](CO)[C@@H](O)[C@@H]1O (some centres unmarked) [N-acetylglucosamine]
[1]; Streptomyces acrimycini
  antibiotic activity against B. subtilis: did not seem to affect
[1]; Streptomyces avermitilis
  antibiotic activity against B. subtilis: did not seem to affect
[1]; Streptomyces cinnamonensis
  antibiotic activity against B. subtilis: did not seem to affect
[1]; Streptomyces clavuligerus
  growth inhibition zones indicative of antibiotic production: most obvious; also recorded: much larger
[1]; Streptomyces collinus
  growth inhibition zones indicative of antibiotic production: most obvious; also recorded: much larger
[1]; Streptomyces griseus
  growth inhibition zones indicative of antibiotic production: most obvious; also recorded: much larger
[1]; Streptomyces hygroscopicus
  growth inhibition zones indicative of antibiotic production: most obvious; also recorded: much larger
[1]; Streptomyces limosus
  antibiotic activity against B. subtilis: did not seem to affect
[1]; Streptomyces lividans
  antibiotic activity against B. subtilis: did not seem to affect
[1]; Streptomyces rimosus
  growth inhibition zones indicative of antibiotic production: most obvious; also recorded: much larger
[1]; Streptomyces roseosporus
  antibiotic activity against B. subtilis: repressing effect
[1]; Streptomyces venezuelae
  growth inhibition zones indicative of antibiotic production: most obvious; also recorded: much larger
[2]; nagE1/nagE2 double mutant (BAP6), R2YE agar
  effect on development: no effect on development
[2]; nagE1 mutant (BAP4), R2YE agar
  effect on development: arrested in the vegetative state
[2]; nagE2 mutant (BAP5), R2YE agar
  effect on development: no effect on development
[2]; parental strain S. coelicolor M145, R2YE agar
  effect on development: arrested in the vegetative state
[3]
  PTS-mediated uptake of GlcNAc: induced
